Source: patent publication US7858800B2, “Biaryl derivatives” (Banyu Pharmaceutical Co., Ltd., priority 2004, dated 2010)

Assays:
[1] = target: T1, human metabotropic glutamic acid receptor 1a (mGluR1a) (Homo sapiens, UniProt Q13255); assay: mGluR1-inhibiting action: calcium concentration in CHO cells expressing mGluR1a (FLIPR); type: cell-based; details: suppression of rise in calcium raised by 10 μM glutamic acid, test compound added 5 minutes before agonist
T1 construct: expressed in transfected cells
Procedure: cDNA of human metabotropic glutamic acid receptor 1a (mGluR1a) was transfected to CHO cells using Lipofectamine (manufactured by Gibco BRL) to give a strain which stably expresses mGluR1a. The CHO cells in which mGluR1a was expressed were incubated in a DMEM medium containing 10% of dialyzed fetal bovine serum, 1% of proline, 100 units/ml of penicillin, 0.1 mg/ml of streptomycin sulfate and 2 mM of glutamine.
On the day before the measurement, 4 μM Fluo-3 was incubated in a CO2 incubator for 1 hour to the CHO cells where mGluR1a was expressed being plated with 50,000 cells per well of a 96-well black plate (View Plate manufactured by Packard). After that, the cells were washed for four times with an HBSS solution containing 20 mM of HEPES and 2.5 mM of Probenecid and then calcium concentration in the cells was measured using a Fluorescence Imaging Plate Reader (FLIPR, manufactured by Molecular Device). Incidentally, the test compound and glutamic acid were prepared using an HBSS solution containing 20 mM HEPES and 2.5 mM Probenecid. The test compound was added before 5 minutes of the stimulation with an agonist and, with regard to the agonist, 10 μM glutamic acid was used.

Male ICR (CD-1) mice = assay: Suppressive action on autonomic momentum (behavior quantity) in mice increased by methamphetamine; type: in vivo; details: compound 10 mg/kg intraperitoneally 30 minutes before methamphetamine 2 mg/kg subcutaneous, behavior quantity during 60 minutes
Procedure: Suppressive Action of the Compound to Autonomic Momentum in Mice which Increases by Methamphetamine
Male ICR (CD-1) mice (20 to 40 g) were used and behavior quantity was measured using a behavior quantity measuring device (manufactured by Neuroscience) where movement of animals is perceived by an infrared sensor. A compound or an appropriate solvent was administered to a mouse and, after 30 minutes, a physiological saline solution or methamphetamine was administered. Behavior quantities immediately after that and until 60 minutes thereafter were measured. Difference between the behavior quantity of the methamphetamine-administered group and that of the solvent-administered group during the measuring period was defined as 100% and evaluation was conducted by expressing the inhibitory % in behavior quantity of the test-compound-administered group.

rats = assay: Suppressive action on pre-pulse inhibition (PPI) decreased by methamphetamine, startle reaction of rats; type: in vivo, rat; details: compound orally 1 to 10 mg/kg 30 minutes before methamphetamine 3 mg/kg, significant suppressive action on decreased PPI
Procedure: Suppressive Action of the Compound to Pre-Pulse Inhibition which Decreases by Methamphetamine)
Investigation was also carried out in a test system of a pre-pulse inhibition where action of antipsychotic agents is able to be specifically detected. A startle reaction being stimulated by combining sonic stimulations of […] and 72 dB (pre-pulse) prior to pulse stimulation and startle reaction to sonic stimulation of 120 dB (pulse stimulation) in the presence of a back sound of 60 dB was measured using a startle reaction measuring device which perceives the body movement of rats (manufactured by San Diego Instrument). The compound of the present invention or an appropriate solvent was administered to a rat and, after 30 minutes, a physiological saline solution of 3 mg/kg of methamphetamine was administered whereupon measurement of a startle reaction was carried out. The startle reactions upon the pulse stimulation and in the presence of pre-pulse were defined as A and B, respectively and values of pre-pulse inhibition (hereinafter, referred to as PPI) were calculated from the following formula.
Method for calculation of PPI: PPI(%)=100×(A−B)/A
When a pre-treatment with methamphetamine was conducted, the startle reaction attenuated to an extent of only about 20% whereby a reduction in pre-pulse inhibition was noted. In the present model, lowering of pre-pulse inhibition by methamphetamine tends to be recovered when a compound having an mGluR1 antagonistic action was orally administered (1 to 10 mg/kg) 30 minutes before the administration of methamphetamine.

T1 sequence (Q13255 19-1194): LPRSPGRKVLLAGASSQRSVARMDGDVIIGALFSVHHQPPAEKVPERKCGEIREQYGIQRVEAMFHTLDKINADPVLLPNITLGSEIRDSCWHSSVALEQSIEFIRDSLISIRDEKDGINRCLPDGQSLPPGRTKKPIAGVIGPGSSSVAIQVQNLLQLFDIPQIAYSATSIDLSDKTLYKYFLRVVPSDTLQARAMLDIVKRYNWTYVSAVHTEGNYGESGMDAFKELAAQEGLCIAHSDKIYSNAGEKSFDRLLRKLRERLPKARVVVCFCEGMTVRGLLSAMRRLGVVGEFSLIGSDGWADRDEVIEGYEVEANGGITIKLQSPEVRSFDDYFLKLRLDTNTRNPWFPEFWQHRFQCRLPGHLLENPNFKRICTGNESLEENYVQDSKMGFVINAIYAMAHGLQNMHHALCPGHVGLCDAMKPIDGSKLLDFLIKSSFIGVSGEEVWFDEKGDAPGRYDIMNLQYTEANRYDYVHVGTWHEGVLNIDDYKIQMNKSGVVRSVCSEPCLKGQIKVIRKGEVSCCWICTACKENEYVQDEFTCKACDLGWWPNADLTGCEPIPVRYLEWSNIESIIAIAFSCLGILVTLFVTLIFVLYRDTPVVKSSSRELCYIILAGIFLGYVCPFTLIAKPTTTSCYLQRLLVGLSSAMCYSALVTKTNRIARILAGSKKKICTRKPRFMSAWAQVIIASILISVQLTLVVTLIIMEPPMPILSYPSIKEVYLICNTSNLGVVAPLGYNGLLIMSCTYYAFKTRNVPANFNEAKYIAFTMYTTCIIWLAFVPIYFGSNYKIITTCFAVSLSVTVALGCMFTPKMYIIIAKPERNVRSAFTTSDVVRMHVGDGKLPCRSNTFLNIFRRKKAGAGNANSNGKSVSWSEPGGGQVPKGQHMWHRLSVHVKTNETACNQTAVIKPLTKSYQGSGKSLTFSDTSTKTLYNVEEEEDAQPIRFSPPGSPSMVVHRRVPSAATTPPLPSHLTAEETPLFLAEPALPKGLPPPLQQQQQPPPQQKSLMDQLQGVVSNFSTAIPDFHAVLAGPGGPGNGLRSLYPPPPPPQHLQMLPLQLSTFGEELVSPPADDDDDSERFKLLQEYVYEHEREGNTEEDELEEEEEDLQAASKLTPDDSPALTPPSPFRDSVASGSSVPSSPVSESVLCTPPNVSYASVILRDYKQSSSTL

Row | IC50 [1] [nM] | SMILES | Motility Quantity (Suppressive %) (Male ICR (CD-1) mice) [%] | Inhibition Effect to PPI Disorder (rats)
1 | 6.7 | Cc1c(C2=CCN(C(=O)OC(C)C)CC2)nnn1-c1cccnc1Cl [Example 42, Isopropyl 4-[1-(2-chloropyridin-3-yl)-5-methyl-1H-[1,2,3]-triazol-4-yl]-1,2,3,6-tetrahydropyridine-1-carboxylate] | >80 | yes
2 | 6.8 | Cc1c(C2=CCN(C(=O)OC(C)C)CC2)nnn1-c1ccc(F)nc1 [Example 43, Isopropyl 4-[1-(2-fluoropyridin-5-yl)-5-methyl-1H-[1,2,3]triazol-4-yl]-1,2,3,6-tetrahydropyridine-1-carboxylate] | >80 | yes
3 | – | Cc1c(C2=CCN(C(=O)N(C)C(C)C)CC2)nnn1-c1cccnc1F [Example 82, 4-[1-(2-Fluoropyridin-3-yl)-5-methyl-1H-[1,2,3]-triazol-4-yl]-1,2,3,6-tetrahydropyridine-1-carboxylic acid isopropylmethylamide] | – | yes
4 | – | Cc1c(C2=CCN(C(=O)N(C)C(C)C)CC2)nnn1-c1cccnc1Cl [Example 84] | >80 | –
